ChEMBL document CHEMBL4425105, “Discovery of (S)-1-(1-(4-Chloro-3-fluorophenyl)-2-hydroxyethyl)-4-(2-((1-methyl-1H-pyrazol-5-yl)amino)pyrimidin-4-yl)pyridin-2(1H)-one (GDC-0994), an Extracellular Signal-Regulated Kinase 1/2 (ERK1/2) Inhibitor in Early Clinical Development” (J Med Chem, 2016)

Assays:
[1] = molecular target: Mitogen-activated protein kinase 1 (Homo sapiens, UniProt P28482)
Description: Inhibition of ERK2 (unknown origin)

Cytochrome P450 = experiment: Inhibition of CYP450 (unknown origin); format: ADME, protein assay; conditions: human
[2] = molecular target: Mitogen-activated protein kinase 3 (Homo sapiens, UniProt P27361)
Description: Inhibition of ERK1 (unknown origin)

Cytochrome P450 3A4 = Cytochrome P450 3A4 (Homo sapiens, UniProt P08684)
Description: Inhibition of CYP3A4 (unknown origin)

[3] = Drug level in mouse hepatocytes treated with (S)-1-(1-(4-chloro-3-fluorophenyl)-2-hydroxyethyl)-4-(2-(tetrahydro-2H-pyran-4-ylamino)pyrimidin-4-yl)pyridin-2(1H)-one measured after 3 hrs by LC/MS analysis; format: ADME, cell-based, Hepatocyte
[4] = Drug level in dog hepatocytes treated with (S)-1-(1-(4-chloro-3-fluorophenyl)-2-hydroxyethyl)-4-(2-(tetrahydro-2H-pyran-4-ylamino)pyrimidin-4-yl)pyridin-2(1H)-one measured after 3 hrs by LC/MS analysis; format: ADME, cell-based, Canis lupus familiaris, Hepatocyte
[5] = Drug level in cynomolgus monkey hepatocytes treated with (S)-1-(1-(4-chloro-3-fluorophenyl)-2-hydroxyethyl)-4-(2-(tetrahydro-2H-pyran-4-ylamino)pyrimidin-4-yl)pyridin-2(1H)-one measured after 3 hrs by LC/MS analysis; format: ADME, cell-based, Macaca fascicularis, Hepatocyte
[6] = Drug level in human hepatocytes treated with (S)-1-(1-(4-chloro-3-fluorophenyl)-2-hydroxyethyl)-4-(2-(tetrahydro-2H-pyran-4-ylamino)pyrimidin-4-yl)pyridin-2(1H)-one measured after 3 hrs by LC/MS analysis; format: ADME, cell-based, Hepatocyte
[7] = Drug level in rat hepatocytes treated with (S)-1-(1-(4-chloro-3-fluorophenyl)-2-hydroxyethyl)-4-(2-(tetrahydro-2H-pyran-4-ylamino)pyrimidin-4-yl)pyridin-2(1H)-one measured after 3 hrs by LC/MS analysis; format: ADME, cell-based, Hepatocyte
HCT-116 = experiment: Antitumor activity against human HCT116 cells xenografted in mouse assessed as tumor growth inhibition at 7.5 mg/kg, po qd measured after 21 days relative to vehicle-control; format: functional; conditions: HCT-116, po, 504 h
in vivo = conditions: CD-1, mouse, po
Description: Oral bioavailability in CD-1 mouse

[8] = Drug metabolism in dog hepatocytes assessed as formation of 3-(4-(1-((S)-1-(4-chloro-3-fluorophenyl)-2-hydroxyethyl)-2-oxo-1,2-dihydropyridin-4-yl)pyrimidin-2-ylamino)-5-hydroxypentanoic acid measured after 3 hrs by LC-MS/MS analysis; format: ADME, cell-based, Canis lupus familiaris, Hepatocyte
[9] = Drug metabolism in cynomolgus monkey hepatocytes assessed as formation of 3-(4-(1-((S)-1-(4-chloro-3-fluorophenyl)-2-hydroxyethyl)-2-oxo-1,2-dihydropyridin-4-yl)pyrimidin-2-ylamino)-5-hydroxypentanoic acid measured after 3 hrs by LC/MS analysis; format: ADME, cell-based, Macaca fascicularis, Hepatocyte
Mus musculus [10] = experiment: T>IC50 for inhibition of p90RSK phosphorylation in CD-1 mouse at 10 mg/kg, po
Mus musculus [11] = organism: Mus musculus
Description: In vivo inhibition of p90RSK phosphorylation in mouse xenografted with human HTC116 cells assessed as total plasma concentration required for efficacy

[12] = Fraction unbound in mouse plasma; format: ADME, cell-free
[13] = Drug metabolism in mouse hepatocytes assessed as formation of 3-(4-(1-((S)-1-(4-chloro-3-fluorophenyl)-2-hydroxyethyl)-2-oxo-1,2-dihydropyridin-4-yl)pyrimidin-2-ylamino)-5-hydroxypentanoic acid measured after 3 hrs by LC-MS/MS analysis; format: ADME, cell-based, Hepatocyte
[14] = Permeability from apical to basolateral side of MDCK cells; format: ADME, cell-based, Canis lupus familiaris; conditions: dog, read-out: permeability
[15] = Drug metabolism in human hepatocytes assessed as formation of 3-(4-(1-((S)-1-(4-chloro-3-fluorophenyl)-2-hydroxyethyl)-2-oxo-1,2-dihydropyridin-4-yl)pyrimidin-2-ylamino)-5-hydroxypentanoic acid measured after 3 hrs by LC-MS/MS analysis; format: ADME, cell-based, Hepatocyte
[16] = Drug metabolism in rat hepatocytes assessed as formation of 3-(4-(1-((S)-1-(4-chloro-3-fluorophenyl)-2-hydroxyethyl)-2-oxo-1,2-dihydropyridin-4-yl)pyrimidin-2-ylamino)-5-hydroxypentanoic acid measured after 3 hrs by LC-MS/MS analysis; format: ADME, cell-based, Hepatocyte

Sequence of Mitogen-activated protein kinase 1 (P28482 whole entry): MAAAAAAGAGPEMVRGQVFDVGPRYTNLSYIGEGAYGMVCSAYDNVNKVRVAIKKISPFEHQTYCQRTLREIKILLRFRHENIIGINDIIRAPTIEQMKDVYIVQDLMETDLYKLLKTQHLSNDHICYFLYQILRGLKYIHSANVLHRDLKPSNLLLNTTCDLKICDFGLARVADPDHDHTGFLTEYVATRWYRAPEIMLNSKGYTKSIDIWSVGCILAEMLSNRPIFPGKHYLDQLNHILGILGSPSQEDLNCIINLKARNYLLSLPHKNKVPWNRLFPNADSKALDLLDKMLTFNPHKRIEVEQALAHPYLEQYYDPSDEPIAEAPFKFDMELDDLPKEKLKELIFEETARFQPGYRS
Sequence of Mitogen-activated protein kinase 3 (P27361 whole entry): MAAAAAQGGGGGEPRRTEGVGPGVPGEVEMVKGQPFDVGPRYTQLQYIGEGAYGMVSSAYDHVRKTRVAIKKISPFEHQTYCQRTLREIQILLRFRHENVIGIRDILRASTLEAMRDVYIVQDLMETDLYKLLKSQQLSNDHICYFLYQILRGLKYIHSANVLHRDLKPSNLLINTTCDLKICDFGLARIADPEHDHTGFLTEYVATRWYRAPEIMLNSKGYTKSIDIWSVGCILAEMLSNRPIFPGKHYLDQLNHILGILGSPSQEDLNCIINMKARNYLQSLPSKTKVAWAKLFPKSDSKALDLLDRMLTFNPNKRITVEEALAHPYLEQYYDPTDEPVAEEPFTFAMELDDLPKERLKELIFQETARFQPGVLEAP
Sequence of Cytochrome P450 3A4 (P08684 whole entry): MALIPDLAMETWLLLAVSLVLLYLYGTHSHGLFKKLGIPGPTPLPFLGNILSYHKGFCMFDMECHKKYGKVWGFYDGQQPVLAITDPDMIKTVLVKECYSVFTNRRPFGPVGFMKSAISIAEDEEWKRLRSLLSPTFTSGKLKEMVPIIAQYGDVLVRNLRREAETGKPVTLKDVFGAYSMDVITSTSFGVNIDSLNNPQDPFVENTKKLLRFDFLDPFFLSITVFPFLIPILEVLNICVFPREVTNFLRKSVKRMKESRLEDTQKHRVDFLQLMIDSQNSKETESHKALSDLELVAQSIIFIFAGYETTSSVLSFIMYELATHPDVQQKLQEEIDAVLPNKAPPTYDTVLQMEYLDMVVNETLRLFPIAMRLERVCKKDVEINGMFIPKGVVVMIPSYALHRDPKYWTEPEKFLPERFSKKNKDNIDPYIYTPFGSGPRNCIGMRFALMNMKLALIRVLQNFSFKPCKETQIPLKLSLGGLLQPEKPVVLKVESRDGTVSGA

SMILES	IC50 [1]	inhibition (INH) (Cytochrome P450)	IC50 [2]	further results
Cn1cc(Nc2nccc(-c3ccn([C@H](CO)c4ccc(Cl)c(F)c4)c(=O)c3)n2)c(C(F)(F)F)n1	290 nM	Not Active	550 nM	–
Cn1ccc(Nc2nccc(-c3ccn([C@H](CO)c4ccc(Cl)c(F)c4)c(=O)c3)n2)n1	37 nM	–	85 nM	–
Cc1n[nH]cc1Nc1nccc(-c2ccn([C@H](CO)c3ccc(Cl)c(F)c3)c(=O)c2)n1	0.9 nM	Not Active	3.8 nM	–
Cc1cc(Nc2nccc(-c3ccn([C@H](CO)c4ccc(Cl)c(F)c4)c(=O)c3)n2)n(C)n1	–	–	20 nM	–
Cn1nc(C(F)(F)F)cc1Nc1nccc(-c2ccn([C@H](CO)c3ccc(Cl)c(F)c3)c(=O)c2)n1	52 nM	–	74 nM	–
Cn1cc(Nc2nccc(-c3ccn([C@H](CO)c4ccc(Cl)c(F)c4)c(=O)c3)n2)cn1	4.1 nM	Not Active	7.9 nM	–
CCc1cc(Nc2nccc(-c3ccn([C@H](CO)c4ccc(Cl)c(F)c4)c(=O)c3)n2)n(C)n1	17 nM	–	27 nM	–
CCc1nn(C)cc1Nc1nccc(-c2ccn([C@H](CO)c3ccc(Cl)c(F)c3)c(=O)c2)n1	23 nM	Not Active	43 nM	–
O=C(O)CC(CCO)Nc1nccc(-c2ccn([C@H](CO)c3ccc(Cl)c(F)c3)c(=O)c2)n1 (some centres not stated)	–	–	–	Drug metabolism [3]: Metabolite_Detected; Drug metabolism [4]: Metabolite_Detected; Drug metabolism [5]: Metabolite_Detected; Drug metabolism [6]: Metabolite_Detected; Drug metabolism [7]: Metabolite_Detected
CCn1cc(Nc2nccc(-c3ccn([C@H](CO)c4ccc(Cl)c(F)c4)c(=O)c3)n2)cn1	1.8 nM	Not Active	5 nM	–
O=C(c1ccc(F)c(F)c1Nc1ccc(I)cc1F)N1CC(O)([C@@H]2CCCCN2)C1 [COBIMETINIB]	–	–	–	inhibition in vivo at 7.5 mg/kg (HCT-116): 58%
Cc1nn(C)cc1Nc1nccc(-c2ccn([C@H](CO)c3ccc(Cl)c(F)c3)c(=O)c2)n1	–	Not Active	13 nM	bioavailability (in vivo): 95%
O=c1cc(-c2ccnc(NC3CCOCC3)n2)ccn1[C@H](CO)c1ccc(Cl)c(F)c1	–	–	–	Drug metabolism [8]: Metabolite_Detected; Drug metabolism [9]: Metabolite_Detected; Time (Mus musculus [10]): 8 h; Cp (Mus musculus [11]): 200 nM; fraction unbound [12]: 0.058; Drug metabolism [13]: Metabolite_Detected; Papp A→B [14]: 3.9 ×10⁻⁶ cm/s; Drug metabolism [15]: Metabolite_Detected; Drug metabolism [16]: Metabolite_Detected

Second part, led by results:

IC50 [1]	inhibition (INH) (Cytochrome P450)	IC50 [2]	SMILES	further results
10 nM	Not Active	19 nM	CC(C)n1cc(Nc2nccc(-c3ccn([C@H](CO)c4ccc(Cl)c(F)c4)c(=O)c3)n2)cn1	–
490 nM	–	1070 nM	Cc1cnn(C)c1Nc1nccc(-c2ccn([C@H](CO)c3ccc(Cl)c(F)c3)c(=O)c2)n1	–
0.94 nM	–	3.9 nM	Cc1cc(Nc2nccc(-c3ccn([C@H](CO)c4ccc(Cl)c(F)c4)c(=O)c3)n2)ccn1	IC50 (Cytochrome P450 3A4): 340 nM
16 nM	–	26 nM	CCn1nccc1Nc1nccc(-c2ccn([C@H](CO)c3ccc(Cl)c(F)c3)c(=O)c2)n1	–
29 nM	Not Active	62 nM	Cc1c(Nc2nccc(-c3ccn([C@H](CO)c4ccc(Cl)c(F)c4)c(=O)c3)n2)cnn1C	–
–	Not Active	18 nM	CCn1cc(Nc2nccc(-c3ccn([C@H](CO)c4ccc(Cl)c(F)c4)c(=O)c3)n2)c(C)n1	–
89 nM	–	150 nM	CCn1nc(C)cc1Nc1nccc(-c2ccn([C@H](CO)c3ccc(Cl)c(F)c3)c(=O)c2)n1	–
5650 nM	–	9610 nM	O=c1cc(-c2ccnc(Nc3cc[nH]n3)n2)ccn1[C@H](CO)c1ccc(Cl)c(F)c1	–
240 nM	Not Active	510 nM	Cc1n[nH]c(C)c1Nc1nccc(-c2ccn([C@H](CO)c3ccc(Cl)c(F)c3)c(=O)c2)n1	–
